# Experiments:
# BACE-1 = BACE-1 (Homo sapiens (Human), UniProt P56817); experiment: BACE-1 Cellular Assay (Aβ in HEK293-APPswe/lon cells); assay type: cell-based; settings: 4 hours
# Method: Assay 3: BACE-1 Cellular Assay
# Certain compounds of the invention, identified in the tables herein, were determined to be potent inhibitors of BACE-1 in the following cellular assay. HEK293 cells are obtained from the American Type Culture Collection (ATCC) and stably transfected with the human amyloid precursor protein cDNA containing the FAD Swedish (enhances β-secretase processing) and London (enhances Aβ42 cleavage) mutations. A HEK293 stable clone with Aβ expression (HEK293-APP^swe/lon) is identified and maintained at 37° C., 5% CO2 in the ATCC-recommended growth media supplemented with hygromycin. […] Aβ40 or Aβ42 are measured in 15 μl of media using a mesoscale based ELISA assay. Full length Aβ40 and Aβ42 peptides are captured with the N-terminal specific biotinylated-WO2 monoclonal antibody and detected using either the ruthenylated Aβ40 C-terminal specific monoclonal antibody, G2-10 or the ruthenylated Aβ42 C-terminal specific monoclonal antibody G2-11 respectively. Raw electrochemiluminescnce values are measured using a Mesoscale Sector Imager plate reader and are plotted as a function of compound concentration. IC50 values are interpolated from the data using nonlinear regression analysis (Sigmoidal dose response fit with variable slope) of the data using GraphPad Prism software.
# CSF Aβ40 = experiment: Aβ Reduction In Vivo (rat CSF Aβ40); settings: male CD IGS rats, 10 mg/kg oral gavage, CSF at 3 hours, change vs vehicle
# Method: Assay 5: Aβ Reduction In Vivo
# The in vivo efficacy and/or potency of BACE inhibitors (test compounds) can be evaluated using a variety of animal models, including mouse, rat, dog, and monkey, and these animals can be wild type, transgenic, or gene knockout animals.
# Generally, animals are administered (by oral gavage, intravenous injection, or by other suitable route) a test compound in doses ranging from, for example, 0.1 mg/kg (mg of compound per kg of animal body weight) to 100 mg/kg formulated in vehicles, such as cyclodextrin, phosphate buffer, hydroxypropyl methylcellulose or other suitable vehicles. One to twenty-four hours following the administration of compound, animals are sacrificed, and tissues (for example, brain, cerebrospinal fluid (CSF), and/or plasma) are collected for analysis of Aβ levels and/or test compound concentrations (Dovey et al., 2001, Journal of Neurochemistry, 76, 173-181). Tissue samples are processed appropriately and then analyzed for the presence of Aβ by specific sandwich ELISA assays based on electrochemiluminescence (ECL) technology.
# For example, in the following assay for which data are reported below, male CD IGS rats (body weight approximately 120 g, Charles River Laboratories, Kingston, N.Y.) were used to assess lowering of CSF levels of Aβ1-40 (Aβ40) in the presence of compounds of the invention. At time 0, animals were administered by oral gavage a test compound at a dose of 10 mg/kg in 20% hydroxypropyl-β-cyclodextrin (dosing volume 5 mL/kg). A separate group of animals received 20% hydroxypropyl-β-cyclodextrin alone to serve as the vehicle control group. Three hours after administration, the rats were euthanized with excess CO2. Immediately following euthanasia, CSF was collected from the cisterna magna and quickly frozen on dry ice. Samples were stored at −80° C. until quantification of Aβ40 levels.
# The measurement of endogenous rat Aβ40 in CSF relied on the 585 antibody (Ab585, BioSource, NONO585), which specifically recognizes the N-terminal sequence of rodent Aβ40, and on the monoclonal antibody, G2-10, which specifically recognizes the free C-terminus of Aβ40. Ab585 was labeled with biotin (b-Ab585) by first dialyzing the antibody sample extensively versus PBS (pH 7.8) to remove impurities, followed by dilution to between 1 and 2 mg/mL protein concentration. EZ-Link Sulfo-NHS-LC-Biotin (Pierce) was dissolved in PBS (pH 7.8) at a concentration of 1 mg/mL immediately prior to use. Ab585 was labeled with EZ-Link Sulfo-NHS-LC-biotin using a 10:1 biotin:antibody ratio by incubation at room temperature for 1 hour. The labeling reaction was quenched by addition of 1.0 M glycine to a final concentration of 0.1 M followed by 10 minute incubation at room temperature. Glycine was removed by extensive dialysis versus PBS.
# For rat CSF Aβ40 determinations, a calibration curve of various concentrations of synthetic rodent Aβ40 was assayed in parallel with rat CSF samples in duplicate using an avidin-coated 96-well MSD plate (Mesoscale Diagnostics). Either 50 μL of rodent Aβ40 standards diluted in PBS (pH 7.4) supplemented with 1% BSA and 1% Tween-20 (standard diluent buffer) or 40 μL of standard diluent buffer plus 10 μL rat CSF were added to each 96 well avidin-coated plate. To each well was added 50 μL of 0.1 M HEPES (pH 7.5), 2% BSA, 2% Tween-20, 0.3 M NaCl (2×Aβ40 buffer) supplemented with the b-Ab585 capture and ruthenylated-G2-10 detection antibodies diluted to 1 μg/mL and 0.5 μg/mL, respectively. Plates were shaken for 1 min on a microplate shaker, covered to protect from light and incubated overnight (˜16 h) at 4° C. For detection, plates were first washed twice with 100 μL of 1×CSF Aβ40 buffer followed by addition of 160 μL of 1×MSD read buffer-T (Mesoscale Diagnostics) diluted in 1×CSF Aβ40 buffer. Plates were read on a MSD Sector Imager 2400 model (Mesoscale Diagnosotics). […]
# rat Mdr1a (P-gp) = rat Mdr1a (P-gp) (Rattus norvegicus, UniProt Q6PSM0); experiment: P-Glycoprotein (P-gp) Efflux Susceptibility Assay; assay type: in vitro ADME; settings: LLC-PK1, pH 7.4; rat LLC-Mdr1a cells, B-A/A-B Papp ratio at 3 h; method 0.1 μM; read-out: P-gp efflux assay (rMDR1a BAAB)
# Method: Assay 6: P-Glycoprotein (P-Gp) Efflux Susceptibility Assay
# As P-gp is expressed at the blood-brain-barrier, among other tissues, lower P-gp efflux ratio values are associated with a better ability to cross the blood-brain-barrier to reach the site of BACE-1 expression in the central nervous system. P-gp efflux ratios are measured in cellular assays using cell lines that express P-gp from a number of species including rat, monkey, and human. The following assay was used to measure the rat P-gp efflux ratios, which are believed to be the most sensitive measure of P-gp susceptibility, for the compounds of the invention (test compounds) reported in the tables below.
# The bidirectional transport of test compounds was conducted across pig kidney epithelial (LLC-PK1) cell monolayers. Native LLC-PK1 cells were obtained from The Netherlands Cancer Institute (Amsterdam, The Netherlands), and used under a license agreement. LLC-PK1 cells expressing a cDNA encoding rat Mdr1a (rat LLC-Mdr1a) were made in-house by stable transfection of LLC-PK1 cells with a rat MDR1 cDNA. LLC-PK1 and rat LLC-Mdr1a cell lines were cultured in 96-well transwell culture plates. […] Substrate solution (150 μL) was added to either the apical (A) or the basolateral (B) compartment of the culture plate, and buffer (150 μL; HBSS, 10 mM HEPES, pH 7.4) was added to the compartment opposite to that containing the compound. At t=3 h, 50 μL samples were removed from both sides of monolayers dosed with test compound and placed in 96 well plates, internal standard (50 μL 1 μM labetolol) was added to the samples. Samples were analyzed by LC/MS/MS using an Applied Biosystems SCIEX API 5000 triple quadruple mass spectrometry (Concord, ON, Canada) with a TurbolonSpray ion source in the positive ion mode. A Thermo Scientific Transcend LX-2 system (Franklin, Mass.) was coupled to the API 5000 with a flow rate of 800 μL/min to direct sample into the mass spectrometer. A Waters ACQUITY UPLC T3 (2×30 mm, 1.7 μm; Milford, Mass.) column was used for sample analysis. Mobile phase A consisted of 0.1% formic acid in water. Mobile phase B was acetonitrile with 0.1% formic acid. A gradient elution program was utilized where the solvent composition was held at 5% B for 0.25 min, changed from 5% B to 95% B at 0.25 min, and followed by holding at 95% B for 0.5 min, then, went back to 5% B at 0.75 min. The column was then re-equilibrated at the original solvent composition for 0.5 min. Mass spectrometric detection was accomplished by multiple reaction monitoring (MRM) of transitions unique to each compound. Sample concentration was obtained by extrapolation from the standard curve. Verapamil (1 μM) was used as the positive control to assess the functional activity of Pgp. The experiment was performed in triplicate.
# The Papp was calculated by the following formula for samples taken at t=3 h:
# [formula] where “Volume of Receptor Chamber” is 0.15 mL, “Area of membrane” is 0.11 cm^2, the “Initial Concentration” is the sum of the concentration measured in the donor compartment plus the concentration measured in the receiver compartment at t=3 h, “Δ in Concentration” is the concentration in the receiver compartment at 3 h, and “Δ in Time” is the incubation time (3×60×60=10800 s). Papp was expressed as 10^−6 cm/s.
# The Papp reported in the table below is the average of the Papp for transport from A to B and Papp for transport from B to A at t=3 hr.
# The B-A/A-B ratio (BAAB) was calculated by dividing the Papp from B to A by the Papp from A to B at t=3 h: […]
# BACE-1, sequence (P56817 46-501): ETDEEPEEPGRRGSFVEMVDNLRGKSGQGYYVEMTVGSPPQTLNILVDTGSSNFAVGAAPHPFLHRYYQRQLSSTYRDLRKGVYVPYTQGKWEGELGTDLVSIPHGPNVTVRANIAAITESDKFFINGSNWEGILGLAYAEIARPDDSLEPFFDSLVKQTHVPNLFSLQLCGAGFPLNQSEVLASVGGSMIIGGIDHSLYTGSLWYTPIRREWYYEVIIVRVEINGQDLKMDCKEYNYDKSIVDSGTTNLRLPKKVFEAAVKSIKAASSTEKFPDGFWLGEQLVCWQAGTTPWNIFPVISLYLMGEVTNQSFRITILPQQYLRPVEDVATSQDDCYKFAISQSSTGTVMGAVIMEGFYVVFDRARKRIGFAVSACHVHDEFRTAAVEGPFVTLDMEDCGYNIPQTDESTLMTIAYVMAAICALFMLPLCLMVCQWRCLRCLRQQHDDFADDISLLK
# rat Mdr1a (P-gp), sequence (Q6PSM0 1-1272): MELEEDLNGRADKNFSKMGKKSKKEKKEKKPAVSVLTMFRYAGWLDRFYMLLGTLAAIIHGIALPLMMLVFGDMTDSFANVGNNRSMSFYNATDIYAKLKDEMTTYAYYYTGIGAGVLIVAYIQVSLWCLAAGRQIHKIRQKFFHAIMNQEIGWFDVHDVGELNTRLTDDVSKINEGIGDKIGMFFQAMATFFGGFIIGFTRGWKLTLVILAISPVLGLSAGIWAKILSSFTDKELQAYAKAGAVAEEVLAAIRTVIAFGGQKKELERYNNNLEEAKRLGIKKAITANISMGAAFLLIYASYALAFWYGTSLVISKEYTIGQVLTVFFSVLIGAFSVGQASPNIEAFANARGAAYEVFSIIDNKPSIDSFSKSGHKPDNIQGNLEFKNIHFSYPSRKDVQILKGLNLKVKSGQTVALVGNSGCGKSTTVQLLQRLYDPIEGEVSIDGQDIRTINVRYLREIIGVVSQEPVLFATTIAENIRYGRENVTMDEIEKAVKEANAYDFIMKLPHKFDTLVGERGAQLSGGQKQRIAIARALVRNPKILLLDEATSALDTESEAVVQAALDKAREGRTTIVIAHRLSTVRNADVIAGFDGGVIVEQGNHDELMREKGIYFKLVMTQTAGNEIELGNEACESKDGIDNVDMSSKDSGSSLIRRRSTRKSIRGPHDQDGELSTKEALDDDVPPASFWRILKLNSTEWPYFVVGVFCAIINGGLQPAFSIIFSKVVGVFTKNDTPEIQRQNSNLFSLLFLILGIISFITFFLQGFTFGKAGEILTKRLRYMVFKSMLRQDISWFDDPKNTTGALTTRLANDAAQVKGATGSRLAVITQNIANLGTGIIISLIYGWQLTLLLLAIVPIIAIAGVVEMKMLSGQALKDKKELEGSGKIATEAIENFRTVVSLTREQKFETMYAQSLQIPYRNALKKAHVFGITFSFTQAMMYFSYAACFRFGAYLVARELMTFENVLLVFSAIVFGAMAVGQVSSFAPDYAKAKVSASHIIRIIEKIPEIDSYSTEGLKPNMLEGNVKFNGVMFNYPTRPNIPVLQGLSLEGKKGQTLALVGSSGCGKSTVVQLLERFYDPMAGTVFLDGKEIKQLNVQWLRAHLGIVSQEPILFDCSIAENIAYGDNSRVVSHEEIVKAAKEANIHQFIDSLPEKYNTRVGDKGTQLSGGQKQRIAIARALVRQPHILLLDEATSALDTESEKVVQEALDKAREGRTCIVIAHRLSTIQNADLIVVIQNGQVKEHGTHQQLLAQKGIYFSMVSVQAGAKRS
SMILES,IC50 (BACE-1) [nM],Aβ reduction in vivo in rat (Δ% CSF Aβ40 @ 10 mpk) (CSF Aβ40) [%],efflux ratio at 3 h (rat Mdr1a (P-gp))
"C[C@@]1(c2cc(Nc3nccc4cc(C#N)cnc34)ccc2F)CS(=O)(=O)[C@@](CF)(C2CC2)C(N)=N1 [Example 1, 8-({3-[(3R,6S)-6-cyclopropyl-6-(fluoromethyl)-5-imino-3-methyl-1,1-dioxidothiomorpholin-3-yl]-4-fluorophenyl}amino)-1,7-naphthyridine-carbonitrile]",24,−58,6.1
"COc1cnc2c(Nc3cc([C@]4(C)CS(=O)(=O)[C@@](C)(C5CC5)C(N)=N4)c(F)cn3)ccnc2n1 [Example 35, (3R,6S)-5-amino-6-cyclopropyl-3-(5-fluoro-2-((3-methoxypyrido[2,3-b]pyrazin-8-yl)amino)pyridin-4-yl)-3,6-dimethyl-3,6-dihydro-2H-1,4-thiazine 1,1-dioxide]",10,−75,
"COc1cnc2c(Nc3ccc(F)c([C@]4(C)CS(=O)(=O)[C@@](C)(C5CC5)C(N)=N4)c3)ccnc2c1 [Example 36, (3R,6S)-5-amino-6-cyclopropyl-3-(2-fluoro-5-((7-methoxy-1,5-naphthyridin-4-yl)amino)phenyl)-3,6-dimethyl-3,6-dihydro-2H-1,4-thiazine 1,1-dioxide]",3.5,−67,
